# Assay results published in patent US6846933B1, “Antimycobacterial compounds and method for making the same” (priority 2000, dated 2005).
# Read-outs that look alike come from different tables or passages of the source.
# What was measured:
# M. avium (ATCC 25291) = assay: TAACF M. avium assay; type: cell-based, Mycobacterium avium; parameters: % Inhibition: concentration or dose not given beside the values; details: for MIC: Mycobacterium avium; for % Inhibition: M. avium assay
# M. avium 101 = assay: Broth dilution MIC vs M. avium 101; type: cell-based; details: Mycobacterium avium, modified 7H10 broth, lowest concentration with no turbidity
# [1] = system: M. tuberculosis Erdman (ATCC 35801) in monolayers of mouse bone marrow macrophages; assay: Killing of M. tuberculosis Erdman in mouse bone marrow macrophages; type: cell-based; details: Mycobacterium tuberculosis, Bone marrow macrophage, 168 h
# M. kansasii swank = assay: Broth dilution MIC vs M. kansasii swank; type: cell-based; details: Mycobacterium kansasii; modified 7H10 broth, lowest concentration with no turbidity
# VERO cells = assay: Cytotoxicity in VERO cells (MTT, 72 hours); type: cell-based; details: Chlorocebus sabaeus
# [2] = Quantitative estimate of relative lipophilicity (chloroform/water partitioning vs isoniazid); details: ratio chloroform:water compared to same ratio for isoniazid as standard (INH = unity)
# [3] = system: Mycobacterium tuberculosis H37Rv (ATCC 27294); assay: TAACF MIC / primary screen vs M. tuberculosis H37Rv (MABA or BACTEC 460); type: cell-based; details: for MIC: Mycobacterium tuberculosis; for MIC (ug/mg): Table 1, M. tuberculosis assay
# M. tuberculosis H37Rv = assay: Minimum bactericidal concentration vs H37Rv; type: cell-based; details: Mycobacterium tuberculosis, read-out: MBC vs H37Rv (ug/ml)
# M. tuberculosis INH-r = assay: microbe, parasite or virus in culture; type: cell-based; details: Mycobacterium tuberculosis, read-out: MBC vs INH-r (ug/ml)
# M. tuberculosis RMP-R = assay: microbe, parasite or virus in culture; type: cell-based; details: Mycobacterium tuberculosis, read-out: MBC vs RMP-R (ug/ml)
# M. tuberculosis Erdman = assay: MIC vs M. tuberculosis Erdman; type: cell-based; details: Mycobacterium tuberculosis
# M. tuberculosis TAC-R = assay: microbe, parasite or virus in culture; type: cell-based; details: Mycobacterium tuberculosis, Bactec, strain panel
# M. tuberculosis EMB-R = assay: microbe, parasite or virus in culture; type: cell-based; details: Mycobacterium tuberculosis, read-out: MIC EMB-R (ug/ml)
# M. tuberculosis ETA-R = assay: MIC vs ETA-R M. tuberculosis; type: cell-based; details: Mycobacterium tuberculosis, read-out: MIC ETA-R (ug/ml)
# [4] = M. tuberculosis assay, Alamar, Tables 7 and 9
# [5] = M. tuberculosis assay, Tables 4 and 5, read-out: MIC
# [6] = ATCC25291, M. avium assay, BACTEC, Tables 2 and 3, read-out: MIC
# [7] = Bactec, strain panel, read-out: MIC Erdman
# [8] = Bactec, strain panel, read-out: MIC H37Rv
# [9] = M. tuberculosis assay, Bactec, Tables 6, 7, 8, read-out: MIC
# [10] = M. tuberculosis assay, Bactec, Tables 6, 7, 8
# [11] = ATCC25291, M. avium assay, Alamar, Table 11, read-out: MIC
# [12] = M. tuberculosis assay, Table 13, primary screen
# [13] = M. tuberculosis assay, Table 13, primary screen, read-out: MIC
# [14] = ATCC25291, M. avium assay, Bactec, Tables 10-12, read-out: MIC
# [15] = M. tuberculosis assay, Alamar, Table 7
smiles,measurement,setting,value
O=CNNC(=O)c1ccncc1,melting point,,94 to 96 °C
CC(=O)NNC(=O)c1ccncc1,melting point,,158 to 160 °C
CCCC(=O)NNC(=O)c1ccncc1,melting point,,142 °C
CCCCC(=O)NNC(=O)c1ccncc1,melting point,,162 °C
"CC[C@H]1OC(=O)[C@H](C)[C@@H](O[C@H]2C[C@@](C)(OC)[C@@H](O)[C@H](C)O2)[C@H](C)[C@@H](O[C@@H]2O[C@H](C)C[C@H](N(C)C)[C@H]2O)[C@](C)(OC)C[C@@H](C)C(=O)[C@H](C)[C@@H](O)[C@]1(C)O [Clarithromycin, reference compound]",MIC,"M. avium (ATCC 25291); ATCC25291, reference control, read-out: MIC Clarithromycin vs. M. avium (control in Comment column)",2 µg/mL
same,MIC,M. avium 101,2 µg/mL
"NNC(=O)c1ccncc1 [INH, isonicotinic acid hydrazide, reference compound]",EC90,[1],0.21 µg/mL
same,EC99,[1],> 0.4 µg/mL
same,MIC,M. kansasii swank,1 µg/mL
same,IC50,VERO cells,> 1000 µg/mL
"CC(=O)N1N=C(c2ccncc2)OC1c1c(Cl)cccc1Cl (stereo not drawn) [Oxadiazoline Example 4, 2-(2,6-Dichlorophenyl)-3-acetyl-5-(4-pyridyl)-1,3,4-oxadiazoline]",Relative Lipophilicity,[2],"35,667"
"CO[C@H]1/C=C/O[C@@]2(C)Oc3c(C)c(O)c4c(O)c(c(/C=N/N5CCN(C)CC5)c(O)c4c3C2=O)NC(=O)/C(C)=C\C=C\[C@H](C)[C@H](O)[C@@H](C)[C@@H](O)[C@@H](C)[C@H](OC(C)=O)[C@@H]1C [RMP, rifampin, reference compound]",MIC,"[3]; read-out: MIC of RMP vs H37Rv (Comment, Table 9), control in MBC test",0.5 µg/mL
same,"% inhibition vs. M. tuberculosis (RMP control, Comment)",[3]; RMP at its MIC 0.25 μg/ml,99%
same,IC50,VERO cells,68 µg/mL
CCC/C(CC(=O)OCC)=N/NC(=O)c1ccncc1 [Sample ID 101702],MBC,M. tuberculosis H37Rv,≥ 0.19 µg/mL
same,MIC,[3]; [4],0.39 µg/mL
same,MBC,M. tuberculosis INH-r,> 12.5 µg/mL
same,MBC,M. tuberculosis RMP-R,0.39 µg/mL
CCOC(=O)C/C(C)=N/NC(=O)c1ccncc1 [Sample ID 101743],EC90,[1],0.01 µg/mL
same,EC99,[1],> 3.2 µg/mL
same,MIC,[3]; [5],0.2 µg/mL
O=C(N/N=C/c1cccc(/C=N/NC(=O)c2ccncc2)c1)c1ccncc1 [Sample ID 102043],EC90,[1],0.04 µg/mL
same,EC99,[1],> 0.8 µg/mL
same,MIC,[3]; [5],0.05 µg/mL
CC(C)=CCCC(C)C/C=N/NC(=O)c1ccncc1 (stereo not drawn) [Sample ID 102044],MIC,M. avium (ATCC 25291); [6],0.78 µg/mL
same,MIC,M. tuberculosis Erdman; [7],< 0.1 µg/mL
same,EC90,[1],0.02 µg/mL
same,EC99,[1],0.08 µg/mL
same,MIC,[3]; [8],< 0.1 µg/mL
same,MIC,[3]; [9],0.2 µg/mL
same,MIC,[3]; [5],0.2 µg/mL
same,MIC,M. tuberculosis TAC-R,3.13 µg/mL
CCCCOc1ccc(/C=N/NC(=O)c2ccncc2)cc1 [Sample ID 102090],EC90,[1],0.18 µg/mL
same,EC99,[1],> 1.6 µg/mL
same,MIC,[3]; [5],0.1 µg/mL
CCCCCCCCCCCC/C=N/NC(=O)c1ccncc1 [Sample ID 102094],EC90,[1],0.08 µg/mL
same,EC99,[1],> 3.2 µg/mL
same,MIC,[3]; [5],0.2 µg/mL
O=C(NN=C1CCCCC1)c1ccncc1 [Sample ID 102674],EC90,[1],0.08 µg/mL
same,EC99,[1],> 0.4 µg/mL
same,MIC,[3]; [5],0.03 µg/mL
CC(C)=NNC(=O)c1ccncc1 [Sample ID 102752],EC90,[1],0.03 µg/mL
same,EC99,[1],0.14 µg/mL
same,MIC,[3]; [5],0.1 µg/mL
O=C(N/N=C/c1ccccc1)c1ccncc1 [Sample ID 102787],EC90,[1],0.04 µg/mL
same,EC99,[1],0.12 µg/mL
same,MIC,[3]; [5],0.1 µg/mL
COc1cc(/C=N/NC(=O)c2ccncc2)ccc1O [Sample ID 102858],EC90,[1],0.03 µg/mL
same,EC99,[1],0.12 µg/mL
same,MIC,[3]; [5],0.2 µg/mL
COc1ccc(/C=N/NC(=O)c2ccncc2)cc1 [Sample ID 102866],MIC,M. avium (ATCC 25291); [6],3.25 µg/mL
same,MIC,M. tuberculosis Erdman; read-out: MIC Erdman (ug/ml),< 0.05 µg/mL
same,EC90,[1],0.04 µg/mL
same,EC99,[1],0.15 µg/mL
same,MIC,[3]; [8],< 0.05 µg/mL
same,MIC,[3]; [9],0.1 µg/mL
same,MIC,[3]; [5],0.1 µg/mL
same,MIC,M. tuberculosis TAC-R,< 3.25 µg/mL
COc1ccccc1/C=N/NC(=O)c1ccncc1 [Sample ID 102871],EC90,[1],0.06 µg/mL
same,EC99,[1],0.23 µg/mL
same,MIC,[3]; [5],0.2 µg/mL
CC(/C=N/NC(=O)c1ccncc1)=C\c1ccccc1 [Sample ID 103062],EC90,[1],0.03 µg/mL
same,EC99,[1],0.15 µg/mL
same,MIC,[3]; [5],0.2 µg/mL
O=C(N/N=C/c1ccc(F)cc1)c1ccncc1 [Sample ID 103167],EC90,[1],0.02 µg/mL
same,EC99,[1],0.07 µg/mL
same,MIC,[3]; [5],0.1 µg/mL
O=C(NN=C1CCCC1)c1ccncc1 [Sample ID 111298],MIC,M. tuberculosis EMB-R,0.05 µg/mL
same,MIC,M. tuberculosis Erdman; read-out: MIC Erdman (ug/ml),0.05 µg/mL
same,EC90,[1],0.03 µg/mL
same,EC99,[1],0.16 µg/mL
same,MIC,[3]; [10],0.02 µg/mL
same,MIC,[3]; [5],0.025 µg/mL
same,MIC,"[3]; read-out: MIC H37Rv (ug/ml), Bactec, strain panel",0.05 µg/mL
CC1C/C(=N/NC(=O)c2ccncc2)CC(C)(C)C1 (stereo not drawn) [Sample ID 114353],MIC,M. tuberculosis EMB-R,< 0.1 µg/mL
same,MIC,M. tuberculosis Erdman; [7],< 0.1 µg/mL
same,MIC,[3]; [8],< 0.1 µg/mL
same,MIC,[3]; [10],> 6.25 µg/mL
O=C(N/N=C/c1cc(Cl)ccc1Cl)c1ccncc1 [Sample ID 117150],% Inhibition,"M. avium (ATCC 25291); Alamar, Table 11",0%
same,MIC,M. avium (ATCC 25291); [11],> 12.5 µg/mL
same,MIC,M. avium (ATCC 25291); [6],> 3.25 µg/mL
same,MIC,M. tuberculosis Erdman; read-out: MIC Erdman (ug/ml),< 0.05 µg/mL
same,MIC,[3]; [8],< 0.05 µg/mL
same,MIC,[3]; [9],0.1 µg/mL
same,MIC,M. tuberculosis TAC-R,> 3.25 µg/mL
CC(=O)N1N=C(c2ccncc2)OC1c1c(Cl)cccc1Cl (stereo not drawn) [Sample ID 117899],% Inhibition,"M. avium (ATCC 25291); Alamar, Table 11",12%
same,MIC,M. avium (ATCC 25291); [11],> 12.5 µg/mL
CC(=O)N1N=C(c2ccncc2)OC1(C)c1ccccc1 (stereo not drawn) [Sample ID 122487],% Inhibition,[3]; [12],98%
same,MIC,[3]; [13],< 12.5 µg/mL
O=C(N/N=C/c1c(F)cccc1F)c1ccncc1 [Sample ID 122489],% Inhibition,"M. avium (ATCC 25291); Bactec, Tables 10-12",45%
same,MIC,M. avium (ATCC 25291); [14],> 12.5 µg/mL
same,% Inhibition,[3]; [15],99%
same,MIC,[3]; [4],< 0.2 µg/mL
same,IC50,VERO cells,> 125 µg/mL
O=C(N/N=C/c1ccc(Cl)c(Cl)c1)c1ccncc1 [Sample ID 122490],% Inhibition,"M. avium (ATCC 25291); Bactec, Tables 10-12",20%
same,MIC,M. avium (ATCC 25291); [14],> 12.5 µg/mL
same,% Inhibition,[3]; [15],99%
same,MIC,"[3]; M. tuberculosis assay, Alamar, Tables 7 and 9, read-out: MIC",< 0.2 µg/mL
same,IC50,VERO cells,> 10 µg/mL
CC(=O)N1N=C(c2ccncc2)OC1c1ccc(Cl)c([N+](=O)[O-])c1 (stereo not drawn) [Sample ID 122491],% Inhibition,[3]; [12],98%
same,MIC,[3]; [13],< 12.5 µg/mL
CC(=O)N1N=C(c2ccncc2)OC1c1c(F)cccc1F (stereo not drawn) [Sample ID 122492],% Inhibition,[3]; [12],99%
same,MIC,[3]; [13],< 12.5 µg/mL
O=C(NNC(=S)Nc1ccccc1)c1ccncc1 [Sample ID 122697],% Inhibition,[3]; [12],79%
same,MIC,[3]; [13],> 12.5 µg/mL
CC(=O)N1N=C(c2ccncc2)OC1c1ccccc1[N+](=O)[O-] (stereo not drawn) [Sample ID 123667],% Inhibition,[3]; [12],38%
same,MIC,[3]; [13],> 12.5 µg/mL
CC(=O)N1N=C(c2ccncc2)OC1c1ccc(Cl)c(Cl)c1 (stereo not drawn) [Sample ID 123669],% Inhibition,"M. avium (ATCC 25291); Bactec, Tables 10-12",65%
same,MIC,M. avium (ATCC 25291); [14],> 12.5 µg/mL
O=C(NNC(=S)Nc1ccc(Br)cc1)c1ccncc1 [Sample ID 125304],% Inhibition,"M. avium (ATCC 25291); Bactec, Tables 10-12",15%
same,MIC,M. avium (ATCC 25291); [14],> 12.5 µg/mL
O=C(NNC(=S)Nc1ccc(Cl)cc1)c1ccncc1 [Sample ID 126719],% Inhibition,"M. avium (ATCC 25291); Bactec, Tables 10-12",84%
same,MIC,"M. avium (ATCC 25291); ATCC25291, M. avium assay, Bactec, Tables 10-12",> 12.5 µg/mL
CCOC(=O)/C(CCc1ccccc1)=N\NC(=O)c1ccncc1 [Sample ID 132358],MIC,M. avium (ATCC 25291); [6],> 3.2 µg/mL
same,MIC,M. tuberculosis EMB-R,> 3.2 µg/mL
same,MIC,M. tuberculosis Erdman; [7],0.1 µg/mL
same,MIC,[3]; [8],0.1 µg/mL
same,MIC (ug/mg),[3]; Bactec,0.1 µg/mL
same,MIC,M. tuberculosis ETA-R,0.8 µg/mL
O=C(N/N=C/C=C(c1ccccc1)c1ccccc1)c1ccncc1 [Sample ID 132532],MIC,M. avium (ATCC 25291); [6],> 3.2 µg/mL
same,MIC,M. tuberculosis EMB-R,> 3.2 µg/mL
same,MIC,M. tuberculosis Erdman; [7],0.1 µg/mL
same,MIC,[3]; [8],0.1 µg/mL
same,MIC (ug/mg),[3]; Bactec,0.1 µg/mL
same,MIC,M. tuberculosis ETA-R,1.6 µg/mL
"O=C(NN=Cc1ccccc1[N+](=O)[O-])c1ccncc1 [Schiff Base Example 47, Isonicotinoylhydrazone of 2-Nitrobenzaldehyde]",Relative Lipophilicity,[2],316
